Results published in ChEMBL document CHEMBL1201862, “PubChem BioAssay data set” (2004).
Active and inactive are the calls of the source.

What was measured:
[1] = biological target: T1, Calpain-2 catalytic subunit (Sus scrofa, UniProt P43367); assay: pig calpain II inhibitor potency, dose response, biochemical, fluorogenic peptide substrate (AID 1420); format: functional
T1 sequence (P43367 whole entry): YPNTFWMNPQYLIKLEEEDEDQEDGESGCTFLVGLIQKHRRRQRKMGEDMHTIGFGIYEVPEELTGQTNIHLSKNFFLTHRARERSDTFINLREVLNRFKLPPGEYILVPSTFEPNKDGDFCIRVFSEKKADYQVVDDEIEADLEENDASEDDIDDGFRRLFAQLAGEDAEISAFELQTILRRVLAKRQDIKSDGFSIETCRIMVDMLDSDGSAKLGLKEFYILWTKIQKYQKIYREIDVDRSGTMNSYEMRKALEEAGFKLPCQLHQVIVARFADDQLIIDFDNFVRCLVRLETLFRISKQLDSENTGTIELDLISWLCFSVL

[2] = biological target: T2, Heat shock factor protein 1 (Mus musculus, UniProt P38532); assay: inhibition of MG132-induced HSE-luciferase signal, confirmation, cell-based, NIH3T3, luminescence, dose retest (AID 2382); format: functional;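 note: NIH3T3 fibroblasts with HSF1-driven luciferase reporter stressed by proteasome inhibitor MG132; luminescence from HSF1-driven luciferase expression after 8 hours of MG132 stress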
T2 sequence (P38532 whole entry): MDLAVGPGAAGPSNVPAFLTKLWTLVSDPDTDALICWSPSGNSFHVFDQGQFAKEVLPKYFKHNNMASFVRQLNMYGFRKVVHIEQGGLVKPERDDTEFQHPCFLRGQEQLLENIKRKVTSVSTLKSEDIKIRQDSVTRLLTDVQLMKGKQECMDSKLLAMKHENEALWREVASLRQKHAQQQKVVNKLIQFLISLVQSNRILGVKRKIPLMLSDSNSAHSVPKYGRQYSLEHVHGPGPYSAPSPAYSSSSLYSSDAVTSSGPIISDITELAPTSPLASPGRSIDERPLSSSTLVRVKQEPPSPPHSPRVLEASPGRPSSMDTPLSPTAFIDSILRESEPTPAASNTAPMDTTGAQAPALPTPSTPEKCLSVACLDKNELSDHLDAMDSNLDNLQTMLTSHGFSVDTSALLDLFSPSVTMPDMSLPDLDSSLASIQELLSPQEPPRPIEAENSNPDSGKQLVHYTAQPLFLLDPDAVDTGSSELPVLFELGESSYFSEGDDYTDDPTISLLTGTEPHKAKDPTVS

Large T antigen = Large T antigen (Simian virus 40, UniProt P03070); format: functional, Betapolyomavirus macacae;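 note: Confirmatory-stage PubChem screen for compounds that inhibit SV40 T antigen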
[3] = biological target: T3, Ubiquitin-conjugating enzyme E2 N (Homo sapiens, UniProt P61088); format: functional;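 note: Dose-response confirmation in a TR-FRET assay detecting UBC13-driven polyubiquitin chain formation, inhibition measured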
T3 sequence (P61088 whole entry): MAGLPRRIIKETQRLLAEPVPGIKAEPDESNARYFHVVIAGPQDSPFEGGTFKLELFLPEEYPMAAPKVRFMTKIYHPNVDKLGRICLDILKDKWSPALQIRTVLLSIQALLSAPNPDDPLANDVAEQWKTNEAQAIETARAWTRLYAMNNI

H9c2 = assay: cells; format: functional, cell-based; settings: Rattus norvegicus, H9c2, Myocardium;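 note: confirmatory concentration-response retest of ultra-high-throughput screening hits for modulation of myocardial damage; cell death induced by hydrogen peroxide oxidative stress; compound pretreatment for 60 min then peroxide exposure for 2 h; potency is for protecting the cells against peroxide damage rather than for killing them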
Cytochrome P450 2D6 = Cytochrome P450 2D6 (Homo sapiens, UniProt P10635);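 note: CYP2D6 member of a cytochrome P450 panel assay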
[4] = cytotoxicity toward NIH3T3 fibroblasts, dose response, counter-screen, cell-based, ATP luminescence, mouse fibroblasts (AID 2010); format: functional;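 note: cells exposed to compound for about 90 hours before reading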
[5] = inhibitors of intracellular T. cruzi replication, confirmation, NIH3T3 host cells, beta-gal luminescence (AID 2044); format: functional, cell-based;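 note: intracellular parasites grown in NIH/3T3 mouse fibroblasts as host cells; luminescent beta-galactosidase reporter signal from transgenic T. cruzi replicating inside host cells; inhibitors lower the luminescence signal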
cells = format: functional
[6] = biological target: Luciferin 4-monooxygenase (Photinus pyralis, UniProt P08659); assay: firefly luciferase enzyme inhibitors, dose response, biochemical, luminescence (AID 1891)
[7] = Luminescence Cell-Based Dose Confirmation HTS to Identify Inhibitors of Platelet Dense Granule Release. [Related pubchem assays: 1663 (Primary HTS), 1678 (Summary of Project)]; format: functional
[8] = cytotoxicity toward DRD oncogenic fibroblasts, dose response, cell-based, non-viral oncogenic, luminescence (AID 1934); format: functional; settings: Homo sapiens
BJ [9] = assay: cytotoxicity toward BJ-TERT fibroblasts, dose response, cell-based, RAS-independent, luminescence (AID 1933); format: functional; settings: Homo sapiens
BJ [10] = assay: cells; format: functional, cell-based; settings: Homo sapiens
BJ [11] = assay: cytotoxicity toward BJ-TERT-LT-ST fibroblasts, dose response, cell-based, RAS-independent, luminescence (AID 1935); format: functional; settings: Homo sapiens;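 note: BJ fibroblasts immortalized with TERT plus LT and ST oncogenes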

Large T antigen, sequence (P03070 whole entry): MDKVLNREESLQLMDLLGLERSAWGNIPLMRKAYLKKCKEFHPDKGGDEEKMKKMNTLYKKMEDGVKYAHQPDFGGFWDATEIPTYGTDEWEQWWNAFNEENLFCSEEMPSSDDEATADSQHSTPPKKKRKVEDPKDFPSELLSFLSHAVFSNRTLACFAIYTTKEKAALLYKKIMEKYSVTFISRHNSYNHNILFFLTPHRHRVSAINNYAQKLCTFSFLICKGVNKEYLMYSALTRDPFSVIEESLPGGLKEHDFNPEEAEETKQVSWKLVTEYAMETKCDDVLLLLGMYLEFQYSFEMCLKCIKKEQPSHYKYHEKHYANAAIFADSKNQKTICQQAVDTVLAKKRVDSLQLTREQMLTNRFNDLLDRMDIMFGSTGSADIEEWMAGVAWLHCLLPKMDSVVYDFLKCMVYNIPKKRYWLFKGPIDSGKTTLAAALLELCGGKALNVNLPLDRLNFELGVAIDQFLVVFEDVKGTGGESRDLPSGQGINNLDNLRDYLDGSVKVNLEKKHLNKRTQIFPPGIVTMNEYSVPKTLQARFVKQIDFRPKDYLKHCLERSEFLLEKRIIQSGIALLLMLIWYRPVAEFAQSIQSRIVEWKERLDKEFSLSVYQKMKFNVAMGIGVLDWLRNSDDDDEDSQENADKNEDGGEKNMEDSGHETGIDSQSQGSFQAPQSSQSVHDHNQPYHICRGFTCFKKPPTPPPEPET
Luciferin 4-monooxygenase, sequence (P08659 whole entry): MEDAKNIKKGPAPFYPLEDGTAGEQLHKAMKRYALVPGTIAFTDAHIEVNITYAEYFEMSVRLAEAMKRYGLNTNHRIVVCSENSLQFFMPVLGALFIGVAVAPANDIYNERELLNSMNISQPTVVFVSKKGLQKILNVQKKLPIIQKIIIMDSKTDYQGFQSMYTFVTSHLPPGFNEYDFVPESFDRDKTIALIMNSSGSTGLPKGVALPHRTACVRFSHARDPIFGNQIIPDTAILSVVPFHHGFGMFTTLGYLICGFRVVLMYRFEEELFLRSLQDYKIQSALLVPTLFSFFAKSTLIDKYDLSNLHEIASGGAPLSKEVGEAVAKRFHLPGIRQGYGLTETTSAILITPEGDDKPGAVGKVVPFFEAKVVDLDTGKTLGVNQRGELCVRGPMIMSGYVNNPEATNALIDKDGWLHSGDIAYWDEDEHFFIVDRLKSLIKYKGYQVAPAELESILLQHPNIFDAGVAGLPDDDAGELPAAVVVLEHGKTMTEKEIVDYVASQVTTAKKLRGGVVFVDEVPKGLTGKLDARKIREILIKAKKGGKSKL
Cytochrome P450 2D6, sequence (P10635 whole entry): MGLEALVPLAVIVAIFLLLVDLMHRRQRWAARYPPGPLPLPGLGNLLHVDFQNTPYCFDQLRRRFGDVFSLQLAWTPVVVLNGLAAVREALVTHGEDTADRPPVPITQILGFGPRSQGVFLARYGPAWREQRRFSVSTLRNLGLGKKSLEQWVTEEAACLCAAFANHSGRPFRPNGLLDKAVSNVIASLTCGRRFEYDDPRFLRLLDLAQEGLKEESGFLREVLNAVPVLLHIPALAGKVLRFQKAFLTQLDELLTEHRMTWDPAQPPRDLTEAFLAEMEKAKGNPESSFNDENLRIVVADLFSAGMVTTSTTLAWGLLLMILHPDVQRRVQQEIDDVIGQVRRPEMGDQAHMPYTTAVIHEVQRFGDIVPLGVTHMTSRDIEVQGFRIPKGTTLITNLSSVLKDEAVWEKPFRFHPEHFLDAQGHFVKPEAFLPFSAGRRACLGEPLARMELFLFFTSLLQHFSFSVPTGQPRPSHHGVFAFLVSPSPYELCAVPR

C[C@H](NS(=O)(=O)c1ccc(Cl)cc1)C(=O)OCC(=O)NC(=O)Nc1ccc2c(c1)OCCO2
IC50 [1]: 14.2 µM (not active)

O=C(OCCCN1CCOCC1)c1ccc(O)c(O)c1
EC50 [2]: 34.7 µM (active)
IC50 (Large T antigen): 11.7 µM (active)

O=C(N[C@@H](Cc1ccccc1)C(=O)OCc1ccccc1)c1[nH]cnc1C(=O)N1CCN(c2ccccc2)CC1
IC50 [1]: 6.6 µM (not active)

Cc1cc(O)nc2ccc(S(=O)(=O)Nc3ccc(O)cc3)cc12
IC50 (Large T antigen): 7.49 µM (active)

CCOc1ccccc1-c1nc(C(N)=O)c2nc(O)n(-c3ccc(F)cc3)c2n1
IC50 [3]: > 20 µM (inactive)

CCCc1cc(O)nc(Nc2ccc(O)cc2)n1
IC50 (Large T antigen): 6.91 µM (active)

CCOC(=O)c1cccc(NS(=O)(=O)c2c(C(=O)N3CCCCCC3)c(C)n(C)c2C)c1
IC50 [3]: > 20 µM (inactive)

CN(C(=O)CCc1nc(O)c2ccccc2n1)C1CCS(=O)(=O)C1 (centres undefined)
IC50 (H9c2): > 79 µM (inactive)

COc1ccc(C(C(=O)NCc2ccccc2)N(Cc2cccs2)C(=O)c2cnccn2)cc1 (centres undefined)
AC50 (Cytochrome P450 2D6): 31.6 µM (inconclusive)
IC50 (H9c2): > 79 µM (inactive)

N=C(NOC(=O)CCCCCN1C(=O)c2ccccc2C1=O)c1ccccc1
IC50 [1]: 48.1 µM (not active)

CC(C)(C)c1ccc(OCCOc2ccc(C(C)(C)C)cc2NC=O)c(NC=O)c1
EC50 [4]: > 60 µM (not active)
EC50 [5]: 2.47 µM (active)
IC50 [1]: 16.6 µM (not active)

O=C(CN1CCN(c2ccc(O)cc2)CC1)Nc1ccc2c(c1)OCCO2
IC50 (Large T antigen): 8.22 µM (active)

Cc1c(-c2ccc(Br)cc2)nc2ccccn12
IC50 (cells): 49.4 µM (active)

CCOC(=O)C1CCN(S(=O)(=O)c2cc(Br)cc3c2N(C(=O)C2CC2)CC3)CC1
IC50 [1]: 11.5 µM (not active)

OC(CNCc1cccc(Br)c1)c1ccccc1 (centres undefined)
EC50 [6]: > 112 µM (not active)
EC50 [7]: 20.7 µM (active)

COc1ccccc1OCCNC(=O)c1cc([N+](=O)[O-])cc([N+](=O)[O-])c1
EC50 [4]: > 60 µM (not active)
EC50 [5]: 0.107 µM (active)
IC50 (cells): 47.6 µM (active)

O=C(Nc1ccc(N2CCCC2)cc1)c1cc(Cl)ccc1Cl
EC50 [8]: 15.8 µM (active)
EC50 (BJ [9]): 13.6 µM (active)
EC50 (BJ [10]): > 150 µM (not active)
EC50 (BJ [11]): 146 µM (active)

O=C(CSc1nc(-c2ccccc2)cs1)NCc1ccco1
EC50 [6]: > 112 µM (not active)
EC50 [7]: > 112 µM (not active)
